pIC50: −log10 of the molar value. Values joined by “and” are separate entries in the source; they are usually repeats but may differ in a detail not shown here. Equal values may be shown once.
System: LG0703-F948-PDC spheroids with HUVEC/MSC, viability
Experiment: Anticancer human tumor LG0703-F948-PDC patient-derived lung adenocarcinoma cell line growth inhibition [IpAb]
Conditions: for viability, T/C: stronger effect = lower value
From the text: Combinatorial screen of targeted agents with ipatasertib and abemaciclib in multi-cell type tumor spheroids
A high-throughput screen of multi-cell type tumor spheroids was designed to identify active combinations of targeted small molecules and ipatasertib or abemaciclib. Complex spheroids include a stromal component modeled by human endothelial cells (HUVEC) and fibroblasts modeled by human mesenchymal stem cells (MSCs). The concentration ranges selected for each drug and investigational agent were based upon clinically achievable concentrations if the clinical Cmax of the agent was known.
Compounds. The drugs and investigational agents: ipatasertib (NSC767898), abemaciclib(NSC768073), selumetinib (NSC741078), trametinib (758246), adavosertib (NSC754352), everolimus (NSC733504), sapanisertib (NSC764658), vemurafenib (NSC761431), venetoclax (NSC766270), copanlisib (NSC809693), apelisib (NSC765974), palbociblib (NSC758247), vemurafenib (NSC761431), dabrafenib (NSC764134), ravoxertinib (NSC781343), BMS-387032 (NSC767048), sotorasib (NSC818433), talazoparib (NSC767125) and afursertib (NSC778305), were obtained from the National Cancer Institute (NCI) Developmental Therapeutics Program Chemical Repository. The FDA-approved anticancer drug set is available from the NCI Developmental Therapeutics Program. […] The stock solutions were prepared in dimethyl sulfoxide (DMSO, Sigma-Aldrich, St. Louis, MO, cat. D2650) at 800-fold the tested concentration and stored at -70 degrees C prior to their use. All drugs and investigational agents were tested over a range starting from a high concentration at or near the clinical Cmax and decreasing in half-log increments. If the clinical Cmax for an agent had not been determined, the highest concentration tested was 10 microM.
NCI60 Cell Culture. NCI60 cell lines were obtained from the NCI Developmental Therapeutics Program Tumor Repository. For each lot of cells, the Repository performed Applied Biosystems AmpFLSTR Identifiler testing with PCR amplification to confirm consistency with the published Identifier STR profile for each cell line. Cells were kept in continuous culture for no more than 20 passages. The optimal seeding densities for each of the cell lines at each time point assessed were determined prior to performing the concentration response studies. Briefly, the NCI60 human tumor lines were grown as monolayers in RPMI 1640 medium supplemented with 10% FBS and 2 mmol/L L-glutamine.
An additional 9 lines were from the NCI60 cell line panel including MDA-MB-231 breast carcinoma, MDA-MB-468 breast carcinoma, MCF7 breast carcinoma, Hs578T breast carcinoma, MALME-3M melanoma, SK-MEL-2 melanoma, SK-OV-3 ovarian carcinoma, DU-145 prostate carcinoma, PC-3 prostate carcinoma, all cell lines along with major genetic alterations are listed on Table 2. Pooled donor human umbilical vein endothelial cells (HUVEC, Lonza, cat. CC-2519) and human mesenchymal stem cells (hMSC, Lonza, cat. PT-2501) were purchased from Lonza (Walkersville, MD).
PDMR cell lines were grown in complete medium (DC medium): Dulbecco's modified Eagle's medium (DMEM)/F12 supplemented with 5% fetal bovine serum (FBS), 2 mM L-glutamine, 100 U/mL penicillin and 100 µg/ml streptomycin, 0.4 µg/ml hydrocortisone, 10 ng/ml epidermal growth factor (EGF) recombinant human protein, 24 µg/mL adenine, and 0.1 mg/mL primocin. During culture from frozen stock vials, PDMR cells were cultured in the same medium containing 10 µM Y-27632 (see Table 3). The PDCs were cultured in complete DMEM/F12 media without 10 microM Y-27632 dihydrochloride for at least two passages prior to the screen. The pooled donor HUVEC and hMSC were cultured in endothelial cell growth medium 2 (PromoCell, Heidelberg, Germany, cat. C-22011) and mesenchymal stem cell growth medium 2 (PromoCell, cat. C-28009), respectively. For all experiments, HUVEC and hMSC were used at passages </=5.
[…]
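Note: spheroids exposed to compounds for seven days before readout.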
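Throughout, for viability, T/C: T/C percent relative to DMSO vehicle wells set as 100% viability.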

Row | SMILES | viability, T/C (compound 0.0316 µM) | viability, T/C (compound 0.1 µM) | viability, T/C (compound 0.316 µM) | viability, T/C (compound 1 µM) | viability, T/C (compound 3.16 µM) | viability, T/C (compound 10 µM) | pIC50 (curve of compound) | other results
1 | C=CC(=O)N1CCN(c2nc(=O)n(-c3c(C)ccnc3C(C)C)c3nc(-c4c(O)cccc4F)c(F)cc23)C(C)C1 (centres undefined) | 110% and 106% | 108% and 103% | 119% | 113% and 129% | 108% and 119% | 65.2% and 83% | < 5.00 | –
2 | C=CCn1c(=O)c2cnc(Nc3ccc(N4CCN(C)CC4)cc3)nc2n1-c1cccc(C(C)(C)O)n1 | 108% and 109% | 107% and 101% | 96.2% and 81.3% | 58% and 55.1% | 19.6% and 15.7% | 6.89% and 4.96% | 5.89 and 5.98 | –
3 | CC(=O)c1c(C)c2cnc(Nc3ccc(N4CCNCC4)cn3)nc2n(C2CCCC2)c1=O | – | – | – | – | – | – | < 6.52 | viability, T/C (compound 0.000949 µM): 115% and 112%; viability, T/C (compound 0.003 µM): 112% and 98.4%; viability, T/C (compound 0.00949 µM): 103% and 102%; viability, T/C (compound 0.03 µM): 101% and 87.4%; viability, T/C (compound 0.0949 µM): 103% and 73.3%; viability, T/C (compound 0.3 µM): 84% and 77.2%
4 | CC(C)(C)c1cnc(CSc2cnc(NC(=O)C3CCNCC3)s2)o1 | – | – | – | – | – | – | 6.97 and 7.11 | viability, T/C (compound 0.00949 µM): 105% and 90.3%; viability, T/C (compound 0.03 µM): 84% and 77.8%; viability, T/C (compound 0.0949 µM): 58.7% and 44.8%; viability, T/C (compound 0.3 µM): 0.71% and 0.81%; viability, T/C (compound 0.949 µM): 0.43% and 0.49%; viability, T/C (compound 3 µM): 0.25% and 0.28%
5 | CC(C)NCC(C(=O)N1CCN(c2ncnc3c2C(C)CC3O)CC1)c1ccc(Cl)cc1 (centres undefined) | – | 81% [middle of 13 runs] | 64.2% [middle of 13 runs] | – | 44.4% [middle of 13 runs] | 40.4% [middle of 13 runs] | – | –
6 | CC(C)n1nc(-c2ccc3oc(N)nc3c2)c2c(N)ncnc21 | 19.4% and 23.2% | 19.6% and 22.4% | – | – | – | – | 8.53 and 8.32 | viability, T/C (compound 0.000316 µM): 87.8% and 89.9%; viability, T/C (compound 0.001 µM): 66.2% and 83.2%; viability, T/C (compound 0.00316 µM): 52% and 57.7%; viability, T/C (compound 0.01 µM): 32.2% and 35.2%
7 | CC1(C)CCC(CN2CCN(c3ccc(C(=O)NS(=O)(=O)c4ccc(NCC5CCOCC5)c([N+](=O)[O-])c4)c(Oc4cnc5[nH]ccc5c4)c3)CC2)=C(c2ccc(Cl)cc2)C1 | 107% and 100% | 106% and 101% | 105% and 90.3% | 101% and 95.1% | 69.9% and 84.5% | 14.1% and 13.4% | 5.32 and 5.26 | –
8 | CCCS(=O)(=O)Nc1ccc(F)c(C(=O)c2c[nH]c3ncc(-c4ccc(Cl)cc4)cc23)c1F | 98.2% and 112% | 99.7% and 110% | 91.5% and 92.6% | 105% and 111% | 98.9% and 101% | 76.2% and 71.7% | < 5.00 | –
9 | CCN1CCN(Cc2ccc(Nc3ncc(F)c(-c4cc(F)c5nc(C)n(C(C)C)c5c4)n3)nc2)CC1 | 97% [middle of 13 runs] | 91% [middle of 12 runs] | 83.5% [middle of 13 runs] | – | – | – | – | pIC50 (compound alone, run of 06/01/2021): < 6.00
10 | COc1c(OCCCN2CCOCC2)ccc2c3n(c(=NC(=O)c4cnc(N)nc4)nc12)CCN3 | 56.1% and 63.4% | 20.8% and 24% | 6.09% and 7.35% | 3.7% and 4.95% | – | – | 7.45 and 7.33 | viability, T/C (compound 0.00316 µM): 96.2% and 95.4%; viability, T/C (compound 0.01 µM): 78.3% and 87.8%

Source: PubChem BioAssay AID2060330 (Molecular Pharmacology Branch, DTP, NCI, 2025)
